According to US20210186947A1, “TOMM6-INTERACTING EXTRACTS AND COMPOUNDS FOR USE IN THE TREATMENT AND PROPHYLAXIS OF NERVOUS SYSTEM DISEASES, ATHEROSCLEROSIS, HEPATITIS B INFECTION AND HUMAN PAPILLOMA VIRUS (HPV) INFECTION” (ETH ZURICH, priority 2018, published 2021):

What was measured:
[1] = tested on: hyperphosphorylated PHF-Tau; assay: Hippocampal hyperphosphorylated PHF-Tau in Tg2576 mice subjected to CUMS, binding assay with [125I]-labeled AT8 antibody; assay type: in vivo; conditions: 15 months-old Tg2576 mice, 3 months of CUMS, treated during CUMS; compounds 10 mg/kg/d
[2] = tested on: hippocampal neuronal cell bodies (NeuN); assay: Hippocampal neuronal loss in Tg2576 mice subjected to CUMS, binding assay with [125I]-labeled anti-NeuN antibody; assay type: in vivo; conditions: 15 months-old Tg2576 mice, 3 months of CUMS, treated during CUMS; compounds 10 mg/kg/d
[3] = biological target: T1, Tomm6 (Mus musculus, UniProt Q9CQN3); assay: Immunoblot detection of hippocampal Tomm6 protein in treated Tg2576 mice; assay type: in vivo; conditions: Tg2576 AD mice subjected to the CUMS protocol, treated during CUMS (10 mg/kg/d)
T1 construct: hippocampi were isolated from 5-10 aged Tg2576 mice, pulverized under liquid nitrogen and solubilized; from tissue; host or cells: hippocampus of Tg2576 mice
T1 sequence (Q9CQN3 1-74): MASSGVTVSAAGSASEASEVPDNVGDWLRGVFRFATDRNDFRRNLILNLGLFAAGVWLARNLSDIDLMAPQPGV

[4] = Measurement of serum level in dogs by HPLC; assay type: in vivo, German shepherd dogs
Method: (§1) Serum concentrations of alizarin were determined with serum isolated from the blood of male and female German shepherd dogs (age: 8-9 months) taken at different time points (0.5 h, 1 h, 2 h, 4 h, 6 h, 8 h, 24 h) after oral intake of the indicated doses for 4 weeks. In addition, serum concentrations of alizarin (Compound-1) were determined in male and female Sprague Dawley rats (body weight: 200-250 g) treated for 1 month and/or three months by oral gavage of alizarin at a once daily dose of 100 mg/kg, 50 mg/kg, 25 mg/kg and 12.5 mg/kg. Serum proteins were removed by acetonitrile precipitation, and alizarin was extracted by chloroform before separation on an HPLC-C18 column (Poroshell 120 EC-C18, 3.0×50 mm, Agilent) with an HPLC system (Agilent 1100 Series) and detection at OD245 nm. For quantitative determination of Compound-7 and Compound-10F in rat and dog serum, serum proteins were also removed by acetonitrile precipitation before HPLC analysis as detailed above and detection at OD254 nm.

[5] = Measurement of serum level in rats by HPLC; assay type: in vivo, Sprague Dawley rats
Method: as §1

[6] = Toxic adverse effects during 3 months of treatment of Tg2576 AD mice; assay type: in vivo; conditions: daily dose of 10 mg/kg
[7] = tested on: hyperphosphorylated PHF tau; assay: Hippocampal hyperphosphorylated PHF tau in aged rats subjected to CUMS, immunoblot; assay type: in vivo, rats (Sprague Dawley); conditions: 4 weeks of CUMS, 10 mg/kg/d during CUMS
[8] = tested on: Agtr2 (AT2R); assay: Immunoblot detection of Agtr2 in PBMCs of aged rats subjected to CUMS; assay type: in vivo, rats (Sprague Dawley); conditions: 4 weeks of CUMS, treated during CUMS
[9] = tested on: aggregated Agtr2; assay: ELISA of aggregated Agtr2 protein in PBMC of rats subjected to CUMS; assay type: in vivo, rats (Sprague Dawley); conditions: aged rats, 4 weeks of CUMS, treated during CUMS
From the text: More preferably, AGTR2 aggregation is detected with a sandwich ELISA. To this end the following steps can be performed: • (i) The first step of the sandwich ELISA is the immobilization of AGTR2-specific capture antibodies (any species, e.g. rabbit, rat, mouse, cameloid; serum, affinity-enriched; F(ab)2 fragments, nanobodies as generated in step (vi)) on an ELISA plate (Nunc Maxisorb), 0.1-10 microg/well, preferably 1-5 microg, more preferably, 1-2 microg in 100 microL of a suitable buffer (e.g. 0.1 M sodium acetate, 0.1 M NaCl, pH 5.5; or 15.9 mM Na2CO3, 35 mM NaHCO3, pH 9.6) by overnight incubation at 4° C. […] After the incubation time, unbound antibody is removed by washing steps (without Tween 20). • (v) Bound antibody is detected by a substrate reaction, which includes the addition of 50-400 microL, preferably 100-200 microL of substrate buffer (18 microL of 30% H2O2 added to 10.5 ml ABTS solution (22 mg ABTS dissolved in 100 ml of 50 mM sodium citrate, pH 4.0-pH 4.5). Any other substrate (e.g. is also feasible. After an incubation time of 1 min-5 h at 4° C.-37° C., preferably 30 min-1 h, more preferably 30 min at 37° C., optical density is measured at 410 nm, e.g. on a plate reader (Versa Max, Molecular Devices). […]

## Cc1nc(CO)cc(-c2ccc(F)cc2)c1C(N)=O [Compound-10F, 4-(4-fluorophenyl)-6-(hydroxymethyl)-2-methyl-pyridine-3-carboxamide]
[1]
  hippocampal content of hyperphosphorylated PHF-Tau: significantly inhibited the hippocampal accumulation of hyperphosphorylated PHF tau
[2]
  hippocampal neuronal loss: retarded the CUMS-induced hippocampal neuronal loss
[3]
  hippocampal Tomm6 protein content: significantly higher
[4]
  oral bioavailability / serum concentrations after oral intake: had oral bioavailability
[5]; rats
  oral bioavailability / serum concentrations after oral intake: had oral bioavailability
[5]; rats vs dogs
  oral doses required to achieve equivalent peak serum concentrations, higher in rats compared to dogs: approximately 10 fold
[5]; rats, repeated once daily oral intake of 20 mg/kg/d
  time of peak serum concentration: 1 h
[6]
  toxic adverse effects: did not show any detectable toxic adverse effects
[7]
  hippocampal accumulation of hyperphosphorylated PHF tau: prevented the hippocampal accumulation of hyperphosphorylated PHF tau
[8]
  PBMC content of monomeric Agtr2: significantly higher compared to untreated controls
  accumulation of aggregated Agtr2 in PBMCs: prevented the accumulation of aggregated Agtr2
[9]
  PBMC content of aggregated Agtr2 protein (ELISA): significantly retarded the CUMS-induced accumulation of Agtr2 aggregates
